Data taken from a melting point compilation (Tetko et al.; mined from patent text by program, amines drawn as free bases though some values may be those of a salt).

Compound | melting point
COC(=O)c1ccc(OCCCN2CCN(c3ccc(Cl)nn3)CC2)cc1 | 128 to 130 °C
CCCCCCCCCCCCCCOCC(C)(O)CNCCO (centres undefined) | 49.1 to 50.2 °C
CCCCCC(Cc1cnc(CCCC)n1Cc1ccccc1Cl)C(=O)O (centres undefined) | 124 to 127 °C
O=C1OCCC1=Cc1ccccc1OCC(O)CN1CCC(c2ccc3ccccc3c2)CC1 (centres undefined) | 127 to 128 °C
CS(=O)(=O)c1ccc(-c2cnn(CC(F)(F)F)c(=O)c2Nc2ccc(F)cc2F)cc1 | 170 to 175 °C
COCCN1CCc2ccc(Nc3ncc4ccc(-c5ccccc5)n4n3)cc2CC1 | 116 to 118 °C
CNC1=NS(=O)N=C1NCCSCc1ccc(CN(C)C)o1 (centres undefined) | 86 to 92 °C
NC(=O)Nc1cccc(OCCCCl)c1 | 141 to 143 °C
CC(=O)Oc1ccc2c(c1)COc1cc3cc(OC(C)=O)ccc3cc1-2 | 194 to 195 °C
CC#CC1(C2CC2)OC(=O)Nc2ccc(-c3cccc(Cl)c3)cc21 (centres undefined) | 178 to 179 °C
CN1C(=N)CN(c2ccccc2)C1=O | 156 to 158 °C
Cn1nc(C2CCCC2)cc1N | 149 to 150 °C
CCOC(=O)C(C)Oc1ncn(-c2ccc(Cl)c(Cl)c2)n1 (centres undefined) | 69 to 71 °C
Cn1ccnc1SCCN1CCC(=C2c3ccn(C)c3CCn3ccnc32)CC1 | 200 °C
N#Cc1cc([N+](=O)[O-])ccc1OCc1ccc2ccccc2n1 | 161 to 162 °C
CC(=O)OCC(=O)C1(O)CCC2C3CCC4=CC(=O)C=CC4(C)C3CCC21C (centres undefined) | 214 °C
O=S(=O)(c1cccc(C(F)(F)F)c1)c1cc(Br)nc(Br)c1 | 156 to 158 °C
CCCNC(=O)N(C)C1CCNCC1 | 84 to 86 °C
O=C(CCc1cc2cccnc2n(-c2cccc([N+](=O)[O-])c2)c1=O)c1ccncc1 | 200 to 202 °C
Cn1c(COc2ccc(CC3SC(=O)N(C(c4ccccc4)(c4ccccc4)c4ccccc4)C3=O)cc2)nc2ccc(Oc3ccc(C#N)cc3)cc21 (centres undefined) | 135 to 138 °C
COc1ccccc1-c1ccc(C(=O)N2Cc3ccc(C(=O)NC(CO)c4ccccc4)n3Cc3ccccc32)cc1 (centres undefined) | 195 to 196 °C
COc1ccc(C(=O)Nc2ccccc2)cc1NCc1ccc([N+](=O)[O-])c(O)c1 | 140 to 143 °C
CC(=O)c1nn(-c2c(Cl)cc(C(F)(F)F)cc2Cl)c(N)c1S(C)(=O)=O | 77 to 79 °C
CCOC(=O)[C@H]1[C@@H]2C=CC(=O)[C@@H]21 (racemic) | 77 to 78 °C
CC(C)c1ccc(N(Cc2cnn(C(C)C)c2)C(=O)C2CCCc3c(O)cccc32)cc1 (centres undefined) | 185 °C

Compound | melting point
C[C@@H]1S[C@@H](C(=O)Nc2ccc(CN3C(=O)CCCC3=O)cc2)Cc2cc3c(cc2C1=O)OCO3 | 205 to 208 °C
COc1ccc(/C=C(\C#N)c2cc(OC)c(OC)c(OC)c2)cc1[N+](=O)[O-] | 158 to 159 °C
CCCCCc1ccc(CCc2ccc(-c3ccc([C@H]4CC[C@H](CCCCC)CC4)cc3F)cc2)cc1 | 69 °C
CCOC(=O)Oc1ccc(S(=O)(=O)N2c3cc(F)c(F)cc3-n3cccc3C2CC)cc1 (centres undefined) | 105 to 107 °C
Nc1c(CC(=O)O)cccc1Oc1ccccc1F | 122 to 123 °C
CCCc1cc(Cl)c2oc(Cc3ccc(OC)cc3)c(C)c2c1OC(=O)OCC | 99 to 100 °C
Clc1cccc(Nc2ncc3cc4ccccc4n3n2)c1 | 174 to 176 °C
N[C@@H](Cc1ccccc1)c1nc2c(C(F)(F)F)cccc2c(O)c1C(=O)Nc1nccs1 | 234 °C
COc1ccc2ccc(OS(=O)(=O)C(F)(F)F)c(-c3nnc(Cl)c4ccccc34)c2c1 | 140 °C
OC(c1ccc(Cl)cc1)(c1ccc(Cl)cc1)C1CCNCC1 | 184 to 188 °C
CCOc1cc2c(c3c1OC(C)(C)C3)C(c1cccc(NC(N)=O)c1)=NC(C)(C)C2 | 202 to 205 °C
CC(Br)c1ccc(-c2nc3ccccc3o2)cc1 (centres undefined) | 128 to 131 °C
CCN(CC)C(=O)n1ccc(Sc2c(C)cccc2Cl)n1 | 57 to 58 °C
CCCn1c(=O)c2c(NC(C)=O)n[nH]c2n(Cc2ccccc2)c1=O | 108 to 110 °C
CCCCCCCCCCCCCCCCCCCCCCC(NC(C)=O)(C(=O)OCC)C(=O)OCC | 79 to 80 °C
COC(C(=O)Nc1cc(Cl)cc(Cl)c1)C(=O)OC(C)(C)C (centres undefined) | 130 to 132 °C
CCc1ccc2nc(N)nc(Nc3ccccc3C)c2c1 | 263 to 265 °C
NCC(=O)Nc1ccc(Cl)cc1C(=O)c1c(F)cccc1F | 133 to 135 °C
COC(=O)c1ccnc(N2CCN(Cc3ccccn3)C2=O)c1 | 100 to 102 °C
CS(=O)c1ccc(Oc2ccc(Cl)c(Cl)c2)nc1C(N)=O (centres undefined) | 185 to 187 °C
Cc1c(-c2ccccc2)oc2c(C(=O)NCCCN3CCN(c4cccc5c4OCC5)CC3)cccc2c1=O | 94 to 95 °C
CC(C)(CO)CCS(N)(=O)=O | 75 to 76 °C
CC(=O)NCc1coc2c(OC(C)=O)cccc12 | 138 to 139 °C
COc1c(C)c(OC(=O)c2c(C)c(C)c(OCCCOc3ccc(F)cc3)c(C)c2OC)c(C)c(C)c1C(N)=O | 146 to 149 °C
N#COc1ccc(OC#N)cc1 | 117 to 119 °C

Compound | melting point
CC1(C)C(=NO)C(c2ccccc2)=C1c1ccc(S(C)(=O)=O)cc1 | 217 to 220 °C
O=C(O)Cc1cccc2c(C3CCCC3)nccc12 | 172 °C
CC(C)(C)[C@H]1Cn2c(nc3c(C4OCCO4)cccc32)-c2ccccc2O1 | 150 to 152 °C
Cc1ccc(S(=O)(=O)Cc2c(-c3ccc(Cl)cc3Cl)nn(C)c2O)cc1 | 209 °C
O=C1CCN(c2nc(=O)c3cccnc3s2)CC1 | 222 to 225 °C
COc1ccc(-c2n[nH]c3c2C(O)c2ccccc2-3)cc1OC (centres undefined) | 197 to 199 °C
COC(=O)CCCc1nc(-c2ccc(C)cc2)oc1C(F)(F)F | 44.5 to 45 °C
Oc1ccc(-c2noc3cc(O)ccc23)cc1 | 192 to 194 °C
c1ccc(C(c2ccc3[nH]c(-c4ccccn4)nc3c2)n2ccnc2)cc1 (centres undefined) | 123 °C
Cc1ccc(C)c([PH](=O)O)c1 | 73 to 80 °C
Cc1cc(C2=NOC(c3cc(Cl)cc(Cl)c3)(C(F)(F)F)C2)ccc1C(=O)NC1(Cl)N=CC=CN1 (centres undefined) | 231 to 234 °C
O=C(c1ccccc1)N1Cc2[nH]c3ccccc3c(=O)c2C1 | 275 °C
COCC1CN(c2ccc(C3CCCCC3)c(N)c2)C(=O)O1 (racemic) | 130 to 132 °C
CN(C)C(=O)c1ccc2c(c1)C(c1ncnc3cc(OCCCN4CCOCC4)ccc13)C(=O)N2 (centres undefined) | 168 to 169 °C
Cc1cc(-c2ccccc2O)nn1-c1ccccc1 | 225 to 229 °C
O=c1[nH]c2cc(F)c(NCC3COc4ccccc4C3)cc2o1 (centres undefined) | 223 to 224 °C
CC(C)(C)OC(=O)N1CCN(CCSc2nc3ccccc3[nH]2)CC1 | 175 to 176 °C
Cn1cc(-c2ccncn2)cc(Br)c1=O | 208 to 210 °C
CCCn1cc(-c2c(-c3ccccc3)nn3ccncc23)ccc1=O | 165 to 166 °C
O=C(c1ccc([N+](=O)[O-])cc1)N1Cc2cccn2-c2ccccc21 | 174 to 178 °C
O=Cc1cc(Oc2ccc(C(F)(F)F)cc2Cl)ccc1[N+](=O)[O-] | 95 °C
CCc1cc(C=O)c2ccc3cccc4ccc1c2c34 | 134 to 136 °C
Cc1noc(-c2cc3c4ccccc4n(C)c3s2)n1 | 200 to 201 °C
CN(C)C(=O)c1cnn(-c2c(Cl)cc(Cl)cc2Cl)c1N | 226 to 228 °C
COc1cc(Nc2nccc(-c3ccc(N4CC[C@@H](N(C)C)C4)nc3)n2)cc(OC)c1OC | 150 to 151 °C

Compound | melting point
O=c1c2ccc(Cl)cc2[nH]c2c(=O)n(-c3ccc(O)cc3)nc(O)c12 | 393 to 395 °C
COC(=O)c1c(C)nc(-c2ccccc2)nc1-c1cccc([N+](=O)[O-])c1 | 128 to 130 °C
COc1cc(N)c(Cl)cc1C(=O)NCC1CCN(CCCCCNC(=O)c2cccc(Cl)c2)CC1 | 139 to 142 °C
Cc1ccc(Cl)c(OCC(O)CNCCNC(=O)NCCCO[N+](=O)[O-])c1 (centres undefined) | 109 to 111 °C
O=C(NCCCN1CCOCC1)c1ccccc1C(c1ccc(O)cc1)c1ccc(O)cc1 | 120 to 122 °C
NCC1COc2cc(F)cc(-c3ccccc3C(F)(F)F)c2N1 (centres undefined) | 99 °C
Clc1nc(Nc2ccccc2)c2ccccc2n1 | 194 to 196 °C
Cc1c(-c2ccc(S)nn2)ssc1=S | 245 °C
CCOC(=O)CC[C@H](NC1CCC(CCC2CNc3nc(NC(=O)C(C)(C)C)nc(O)c3C2)CC1)C(=O)OCC (some centres undefined) | 160 to 170 °C
N#Cc1ccc(S(=O)(=O)N2CCN(C(=O)C3CCN(c4ccncn4)CC3)CC2)cc1 | 180 to 181 °C
O=c1[nH]c(-c2csc3ccccc23)nc2ccc(N3CCCCC3)cc12 | > 300 °C
CC(C)(C)OC(=O)N1CCC(=Cc2ccc3ccccc3n2)CC1 | 72 to 73 °C
CC(C)(C)COC(=O)N1CC2CC(CN(CC(O)COc3ccc(C#N)cc3)C2)C1 (centres undefined) | 146 to 147 °C
CC1NC(=O)C2=C1c1ccc(Cl)cc1C(c1ccccc1Cl)=NC2 (centres undefined) | 239 to 241 °C
O=C(O)c1ncsc1-c1cccc(I)c1 | 186 °C
Cc1c(Br)ccc([N+](=O)[O-])c1C#N | 116 to 118 °C
CC(=O)Nc1nc2c(Oc3cc(-c4ccc(C(F)(F)F)cc4OS(=O)(=O)C(F)(F)F)ncn3)cccc2s1 | 209 to 212 °C
CN1CCC(CCCOc2cc3ncnc(Nc4cccc(Br)c4)c3cc2N)CC1 | 191 to 198 °C
CCCNC(=S)NC1=Nc2ccccc2CS1 | 180 to 184 °C
O=[N+]([O-])c1cc(C(c2ccc(NCc3ccccc3)c([N+](=O)[O-])c2)(C(F)(F)F)C(F)(F)F)ccc1NCc1ccccc1 | 168 to 172 °C
Cc1cc(F)c(N)cc1-n1cc(C(=O)O)c(=O)c2cc(F)c(N)c(C)c21 | > 240 °C
Nc1nc(CCCc2ccccc2)nc2nc(-c3ccco3)nn12 | 164 to 167 °C
CSc1noc(-c2ccc(OCCOc3ccc([N+](=O)[O-])cc3)cc2)c1C#N | 170 to 171 °C
COc1ccc(C=O)cc1OCc1ccc2ccccc2c1 | 80 °C
